Measurements published in paper PMC10463274 (2023).

Legend:
[1] = system: vancomycin aptamer (DNA, aptamer) CGAGGGTACCGCAATAGTACTTATTGTTCGCCTATTGTGGGTCGG; assay: FFT-EIS electrochemical aptamer-based sensor (ket titration); conditions: whole bovine blood, 37 °C; apparent; error is 95% confidence interval; Hill–Langmuir fit
[2] = system: phenylalanine aptamer (DNA, aptamer) CGACCGCGTTTCCCAAGAAAGCAAGTATTGGTTGGTCG; assay: FFT-EIS electrochemical aptamer-based sensor; conditions: in vitro calibration; details only in supporting information

KD [1] [µM] | binding [2] | Structure (SMILES)
144 ± 31 | – | CN[C@H](CC(C)C)C(=O)N[C@H]1C(=O)N[C@@H](CC(N)=O)C(=O)N[C@H]2C(=O)N[C@H]3C(=O)N[C@H](C(=O)N[C@H](C(=O)O)c4cc(O)cc(O)c4-c4cc3ccc4O)[C@H](O)c3ccc(c(Cl)c3)Oc3cc2cc(c3O[C@@H]2O[C@H](CO)[C@@H](O)[C@H](O)[C@H]2O[C@H]2C[C@](C)(N)[C@H](O)[C@H](C)O2)Oc2ccc(cc2Cl)[C@H]1O
– | yes | N[C@@H](Cc1ccccc1)C(=O)O
